Test results reported in US8426408B2, “Pyrimidine inhibitors of kinases” (AbbVie Inc., priority 2009, dated 2013).

What was measured:
Aurora B = biological target: T1, Aurora B (Homo sapiens, UniProt Q96GD4); assay: Aurora B enzyme inhibition (time-resolved fluorescence, histone H3 peptide); format: biochemical; details: 1 mM ATP
T1 construct: Active Aurora B enzyme (recombinant residues 1-344)
Procedure, shortened: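 IC50s came from an exponential fit of inhibition against inhibitor concentration, with phosphorylation read as the 665/615 nm time-resolved fluorescence ratio after EDTA stop using Eu-anti-phospho-H3 and SA-APC. The 1 h reaction used Aurora B 1-344 plus GST-INCENP, biotin-histone H3 1-21 peptide and 1 mM ATP in pH 7.4 HEPES buffer.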

KDR [1] = biological target: T2, KDR (Homo sapiens, UniProt P35968); assay: KDR HTRF in vitro kinase assay; format: biochemical; design: purified enzyme (His6-KDR 789-1354, MW 63 kD); His6 (N); details: 1 mM ATP; read-out: KDR enzyme inhibition data (Ki)
Procedure, shortened: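 His6-KDR 789-1354 (7 ng/well) with 0.5 μM biotinylated peptide substrate and 1 mM ATP in HEPES pH 7.1, MgCl2/MnCl2, 60 min at room temperature. EDTA-quenched, detected by streptavidin-XL-665 plus Eu-kryptate anti-phosphotyrosine HTRF after 3 h; IC50 from 620/665 nm ratio.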
Target sequence in this assay (P35968 789-1354): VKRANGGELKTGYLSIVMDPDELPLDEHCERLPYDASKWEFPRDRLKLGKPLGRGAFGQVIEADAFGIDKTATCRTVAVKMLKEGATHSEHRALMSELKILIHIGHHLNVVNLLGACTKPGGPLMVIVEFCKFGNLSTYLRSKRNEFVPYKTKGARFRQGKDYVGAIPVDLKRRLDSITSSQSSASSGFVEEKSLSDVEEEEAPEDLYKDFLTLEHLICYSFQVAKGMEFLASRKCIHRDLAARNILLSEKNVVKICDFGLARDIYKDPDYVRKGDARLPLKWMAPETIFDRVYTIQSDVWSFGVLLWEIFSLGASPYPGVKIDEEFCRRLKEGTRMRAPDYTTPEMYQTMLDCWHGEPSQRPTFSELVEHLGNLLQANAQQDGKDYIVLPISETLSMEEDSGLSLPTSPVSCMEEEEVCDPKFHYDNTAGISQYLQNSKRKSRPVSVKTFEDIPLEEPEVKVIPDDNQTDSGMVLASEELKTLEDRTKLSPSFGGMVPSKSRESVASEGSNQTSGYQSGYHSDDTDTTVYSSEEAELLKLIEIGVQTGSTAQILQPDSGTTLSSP

KDR [2] = biological target: T2, KDR; assay: KDR cellular assay (KDR receptor phosphorylation ELISA); format: cell-based; design: expressed in transfected cells; host or cells: 3T3 (embryonic mouse) cells; details: KDR transfected 3T3 (embryonic mouse) cells, VEGF stimulated; read-out: IC50 inhibition of KDR phosphorylation
Procedure, shortened: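 Phospho-KDR measured by capture ELISA (anti-KDR coat, biotinylated detection, streptavidin-HRP, 450 nm) in lysates of KDR-expressing 3T3 mouse fibroblasts. Cells saw compound 20 min at 37° C before 10 min VEGF challenge (100 ng/ml solution); IC50 from non-linear regression of half-log dose series.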
Target sequence in this assay (P35968 20-1356): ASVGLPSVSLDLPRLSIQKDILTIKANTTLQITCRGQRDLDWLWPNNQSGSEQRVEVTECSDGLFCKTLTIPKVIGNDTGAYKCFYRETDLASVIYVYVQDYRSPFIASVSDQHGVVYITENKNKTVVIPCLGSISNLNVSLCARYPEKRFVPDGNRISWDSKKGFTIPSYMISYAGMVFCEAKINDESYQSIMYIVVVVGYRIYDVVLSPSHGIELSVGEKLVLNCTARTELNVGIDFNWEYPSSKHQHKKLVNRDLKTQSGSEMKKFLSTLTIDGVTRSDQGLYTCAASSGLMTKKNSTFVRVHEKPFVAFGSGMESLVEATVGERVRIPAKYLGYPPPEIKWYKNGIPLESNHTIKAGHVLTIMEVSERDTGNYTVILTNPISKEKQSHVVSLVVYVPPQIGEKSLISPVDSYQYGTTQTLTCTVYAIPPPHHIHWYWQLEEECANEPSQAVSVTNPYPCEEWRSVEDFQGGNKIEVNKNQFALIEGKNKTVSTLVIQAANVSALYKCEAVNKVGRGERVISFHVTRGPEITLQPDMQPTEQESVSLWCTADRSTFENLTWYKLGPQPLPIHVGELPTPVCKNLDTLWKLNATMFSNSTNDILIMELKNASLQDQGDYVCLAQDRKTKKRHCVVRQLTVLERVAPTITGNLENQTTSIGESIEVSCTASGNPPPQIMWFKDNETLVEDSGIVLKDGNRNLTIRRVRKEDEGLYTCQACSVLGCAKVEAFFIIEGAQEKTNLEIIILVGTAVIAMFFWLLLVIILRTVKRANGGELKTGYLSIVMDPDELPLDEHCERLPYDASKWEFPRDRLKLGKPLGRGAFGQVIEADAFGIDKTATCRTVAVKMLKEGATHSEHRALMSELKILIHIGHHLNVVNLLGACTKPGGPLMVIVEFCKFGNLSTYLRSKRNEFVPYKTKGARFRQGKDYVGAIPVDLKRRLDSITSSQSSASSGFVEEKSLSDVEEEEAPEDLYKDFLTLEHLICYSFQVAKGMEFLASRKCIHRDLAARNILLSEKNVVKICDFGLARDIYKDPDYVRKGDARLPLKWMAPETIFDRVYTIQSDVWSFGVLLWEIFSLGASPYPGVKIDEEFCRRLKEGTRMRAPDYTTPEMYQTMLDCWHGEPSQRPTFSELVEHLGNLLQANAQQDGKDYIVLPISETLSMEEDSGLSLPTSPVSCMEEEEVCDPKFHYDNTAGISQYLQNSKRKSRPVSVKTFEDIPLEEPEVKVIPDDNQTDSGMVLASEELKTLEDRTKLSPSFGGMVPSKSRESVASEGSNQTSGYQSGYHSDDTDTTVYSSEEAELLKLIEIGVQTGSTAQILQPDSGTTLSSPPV

T1 sequence (Q96GD4 whole entry, the tested form may be a part): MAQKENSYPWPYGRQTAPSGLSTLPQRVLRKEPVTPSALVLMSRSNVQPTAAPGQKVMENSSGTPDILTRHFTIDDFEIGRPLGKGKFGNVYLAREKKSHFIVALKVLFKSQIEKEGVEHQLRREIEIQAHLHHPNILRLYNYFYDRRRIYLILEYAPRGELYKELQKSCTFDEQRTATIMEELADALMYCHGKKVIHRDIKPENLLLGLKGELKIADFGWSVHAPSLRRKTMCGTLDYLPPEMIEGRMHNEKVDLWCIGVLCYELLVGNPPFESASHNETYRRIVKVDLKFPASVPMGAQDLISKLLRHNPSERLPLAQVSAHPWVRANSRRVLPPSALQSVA
T1 sequence (Q9NQS7 826-918 partner limits assumed): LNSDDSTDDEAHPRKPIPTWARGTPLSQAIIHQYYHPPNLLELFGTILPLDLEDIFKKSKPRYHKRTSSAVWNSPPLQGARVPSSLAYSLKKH

Cc1c(Nc2ncc(Cl)c(N[C@H]3[C@@H](C(N)=O)[C@@H]4C=C[C@H]3C4)n2)cnn1C [Example 169, (1S,2S,3R,4R)-3-({5-chloro-2-[(1,5-dimethyl-1H-pyrazol-4-yl)amino]pyrimidin-4-yl}amino)bicyclo[2.2.1]hept-5-ene-2-carboxamide]
Ki (Aurora B): < 100 nM
Ki (KDR [1]): < 100 nM
IC50 (KDR [2]): < 100 nM

COCCOCCn1cc(Nc2ncc(Cl)c(N[C@H]3[C@@H](C(N)=O)[C@@H]4C=C[C@H]3C4)n2)cn1 [Example 100, (1S,2S,3R,4R)-3-{[5-chloro-2-({1-[2-(2-methoxyethoxy)ethyl]-1H-pyrazol-4-yl}amino)pyrimidin-4-yl]amino}bicyclo[2.2.1]hept-5-ene-2-carboxamide]
Ki (Aurora B): < 100 nM
Ki (KDR [1]): < 100 nM
IC50 (KDR [2]): < 100 nM

C[C@@H](O)Cn1cc(Nc2ncc(Cl)c(N[C@@H]3[C@H]4CC[C@H](C4)[C@@H]3C(N)=O)n2)cn1 [Example 104, (1R,2S,3R,4S)-3-{[5-chloro-2-({1-[(2R)-2-hydroxypropyl]-1H-pyrazol-4-yl}amino)pyrimidin-4-yl]amino}bicyclo[2.2.1]heptane-2-carboxamide]
Ki (Aurora B): < 100 nM
Ki (KDR [1]): < 100 nM
IC50 (KDR [2]): 100 to 1000 nM

COCCn1cc(Nc2ncc(Br)c(N[C@H]3[C@@H](C(N)=O)[C@@H]4C=C[C@H]3C4)n2)cn1 [Example 106, (1S,2S,3R,4R)-3-[(5-bromo-2-{[1-(2-methoxyethyl)-1H-pyrazol-4-yl]amino}pyrimidin-4-yl)amino]bicyclo[2.2.1]hept-5-ene-2-carboxamide]
Ki (Aurora B): < 100 nM
Ki (KDR [1]): < 100 nM
IC50 (KDR [2]): < 100 nM

CN1CCN(CCn2cc(Nc3ncc(Cl)c(N[C@@H]4[C@H]5CC[C@H](C5)[C@@H]4C(N)=O)n3)cn2)CC1 [Example 90, (1R,2S,3R,4S)-3-{[5-chloro-2-({1-[2-(4-methylpiperazin-1-yl)ethyl]-1H-pyrazol-4-yl}amino)pyrimidin-4-yl]amino}bicyclo[2.2.1]heptane-2-carboxamide]
Ki (Aurora B): < 100 nM
Ki (KDR [1]): < 100 nM
IC50 (KDR [2]): < 100 nM

NC(=O)[C@@H]1[C@H](Nc2nc(Nc3cnn(Cc4ccc(Cl)cc4)c3)ncc2Cl)[C@H]2C=C[C@@H]1C2 [Example 162, (1S,2S,3R,4R)-3-[(5-chloro-2-{[1-(4-chlorobenzyl)-1H-pyrazol-4-yl]amino}pyrimidin-4-yl)amino]bicyclo[2.2.1]hept-5-ene-2-carboxamide]
Ki (Aurora B): < 100 nM
Ki (KDR [1]): < 100 nM
IC50 (KDR [2]): < 100 nM

NC(=O)[C@@H]1[C@H](Nc2nc(Nc3cnn([C@@H]4CCOC4)c3)ncc2Cl)[C@H]2C=C[C@@H]1C2 [Example 107, (1S,2S,3R,4R)-3-{[5-chloro-2-({1-[(3R)-tetrahydrofuran-3-yl]-1H-pyrazol-4-yl}amino)pyrimidin-4-yl]amino}bicyclo[2.2.1]hept-5-ene-2-carboxamide]
Ki (Aurora B): < 100 nM
Ki (KDR [1]): < 100 nM
IC50 (KDR [2]): < 100 nM

CS(=O)(=O)CCn1cc(Nc2ncc(Br)c(N[C@H]3[C@@H](C(N)=O)[C@@H]4C=C[C@H]3C4)n2)cn1 [Example 122, (1S,2S,3R,4R)-3-{[5-bromo-2-({1-[2-(methylsulfonyl)ethyl]-1H-pyrazol-4-yl}amino)pyrimidin-4-yl]amino}bicyclo[2.2.1]hept-5-ene-2-carboxamide]
Ki (Aurora B): < 100 nM
Ki (KDR [1]): < 100 nM
IC50 (KDR [2]): < 100 nM

Cc1c(Nc2ncc(Br)c(N[C@H]3[C@@H](C(N)=O)[C@@H]4C=C[C@H]3C4)n2)cnn1C [Example 170, (1S,2S,3R,4R)-3-({5-bromo-2-[(1,5-dimethyl-1H-pyrazol-4-yl)amino]pyrimidin-4-yl}amino)bicyclo[2.2.1]hept-5-ene-2-carboxamide]
Ki (Aurora B): < 100 nM
Ki (KDR [1]): < 100 nM
IC50 (KDR [2]): < 100 nM

CN1CCN(CCn2cc(Nc3ncc(Cl)c(N[C@H]4[C@@H](C(N)=O)[C@@H]5C=C[C@H]4C5)n3)cn2)CC1 [Example 91, (1S,2S,3R,4R)-3-{[5-chloro-2-({1-[2-(4-methylpiperazin-1-yl)ethyl]-1H-pyrazol-4-yl}amino)pyrimidin-4-yl]amino}bicyclo[2.2.1]hept-5-ene-2-carboxamide]
Ki (Aurora B): < 100 nM
Ki (KDR [1]): < 100 nM
IC50 (KDR [2]): < 100 nM

COc1cccc(CCn2cc(Nc3ncc(Cl)c(N[C@H]4[C@@H](C(N)=O)[C@@H]5C=C[C@H]4C5)n3)cn2)c1 [Example 154, (1S,2S,3R,4R)-3-{[5-chloro-2-({1-[2-(3-methoxyphenyl)ethyl]-1H-pyrazol-4-yl}amino)pyrimidin-4-yl]amino}bicyclo[2.2.1]hept-5-ene-2-carboxamide]
Ki (Aurora B): < 100 nM
Ki (KDR [1]): < 100 nM
IC50 (KDR [2]): 100 to 1000 nM

Cn1cc(Nc2ncc(C(F)(F)F)c(Nc3ccsc3C(N)=O)n2)cn1 [Example 150, 3-({2-[(1-methyl-1H-pyrazol-4-yl)amino]-5-(trifluoromethyl)pyrimidin-4-yl}amino)thiophene-2-carboxamide]
Ki (Aurora B): < 100 nM
Ki (KDR [1]): < 100 nM
IC50 (KDR [2]): 100 to 1000 nM

NC(=O)[C@@H]1[C@H](Nc2nc(Nc3cnn(Cc4ccc5ccccc5c4)c3)ncc2Cl)[C@H]2C=C[C@@H]1C2 [Example 179, (1S,2S,3R,4R)-3-[(5-chloro-2-{[1-(2-naphthylmethyl)-1H-pyrazol-4-yl]amino}pyrimidin-4-yl)amino]bicyclo[2.2.1]hept-5-ene-2-carboxamide]
Ki (Aurora B): < 100 nM
Ki (KDR [1]): < 100 nM
IC50 (KDR [2]): < 100 nM

NC(=O)[C@@H]1[C@H](Nc2nc(Nc3cnn(Cc4ccccc4)c3)ncc2Cl)[C@H]2C=C[C@@H]1C2 [Example 144, (1S,2S,3R,4R)-3-({2-[(1-benzyl-1H-pyrazol-4-yl)amino]-5-chloropyrimidin-4-yl}amino)bicyclo[2.2.1]hept-5-ene-2-carboxamide]
Ki (Aurora B): < 100 nM
Ki (KDR [1]): < 100 nM
IC50 (KDR [2]): < 100 nM

NC(=O)[C@@H]1[C@H](Nc2nc(Nc3cnn(C[C@H](O)CO)c3)ncc2Br)[C@H]2C=C[C@@H]1C2 [Example 131, (1S,2S,3R,4R)-3-{[5-bromo-2-({1-[(2S)-2,3-dihydroxypropyl]-1H-pyrazol-4-yl}amino)pyrimidin-4-yl]amino}bicyclo[2.2.1]hept-5-ene-2-carboxamide]
Ki (Aurora B): < 100 nM
Ki (KDR [1]): < 100 nM
IC50 (KDR [2]): 100 to 1000 nM

CCn1cc(Nc2ncc([N+](=O)[O-])c(N[C@H]3[C@@H](C(N)=O)[C@@H]4C=C[C@H]3C4)n2)cn1 [Example 140, (1S,2S,3R,4R)-3-({2-[(1-ethyl-1H-pyrazol-4-yl)amino]-5-nitropyrimidin-4-yl}amino)bicyclo[2.2.1]hept-5-ene-2-carboxamide]
Ki (Aurora B): < 100 nM
Ki (KDR [1]): < 100 nM
IC50 (KDR [2]): 100 to 1000 nM

Cn1cc(Nc2ncc(Cl)c(Nc3ccccc3C3(O)CCC3)n2)cn1 [Example 101, 1-[2-({5-chloro-2-[(1-methyl-1H-pyrazol-4-yl)amino]pyrimidin-4-yl}amino)phenyl]cyclobutanol]
Ki (Aurora B): < 100 nM
Ki (KDR [1]): < 100 nM
IC50 (KDR [2]): 100 to 1000 nM

NC(=O)[C@@H]1[C@H](Nc2nc(Nc3cnn(C4CCC4)c3)ncc2Br)[C@H]2C=C[C@@H]1C2 [Example 123, (1S,2S,3R,4R)-3-({5-bromo-2-[(1-cyclobutyl-1H-pyrazol-4-yl)amino]pyrimidin-4-yl}amino)bicyclo[2.2.1]hept-5-ene-2-carboxamide]
Ki (Aurora B): < 100 nM
Ki (KDR [1]): < 100 nM
IC50 (KDR [2]): < 100 nM

NC(=O)[C@@H]1[C@H](Nc2nc(Nc3cnn(CCc4ccccc4)c3)ncc2Cl)[C@H]2C=C[C@@H]1C2 [Example 143, (1S,2S,3R,4R)-3-[(5-chloro-2-{[1-(2-phenylethyl)-1H-pyrazol-4-yl]amino}pyrimidin-4-yl)amino]bicyclo[2.2.1]hept-5-ene-2-carboxamide]
Ki (Aurora B): < 100 nM
Ki (KDR [1]): < 100 nM
IC50 (KDR [2]): < 100 nM

NC(=O)[C@@H]1[C@H](Nc2nc(Nc3cnn(Cc4ccccc4Cl)c3)ncc2Br)[C@H]2C=C[C@@H]1C2 [Example 171, (1S,2S,3R,4R)-3-[(5-bromo-2-{[1-(2-chlorobenzyl)-1H-pyrazol-4-yl]amino}pyrimidin-4-yl)amino]bicyclo[2.2.1]hept-5-ene-2-carboxamide]
Ki (Aurora B): < 100 nM
Ki (KDR [1]): < 100 nM
IC50 (KDR [2]): < 100 nM

CCn1cc(Nc2ncc(C(F)(F)F)c(N[C@@H]3[C@H](C(N)=O)[C@H]4C=C[C@@H]3C4)n2)cn1.CCn1cc(Nc2ncc(C(F)(F)F)c(N[C@H]3[C@@H](C(N)=O)[C@@H]4C=C[C@H]3C4)n2)cn1 (mixture of isomers) [Example 22, (1S,2S,3R,4R)-3-{[2-[(1-ethyl-1H-pyrazol-4-yl)amino]-5-(trifluoromethyl)pyrimidin-4-yl]amino}bicyclo[2.2.1]hept-5-ene-2-carboxamide and (1R,2R,3S,4S)-3-{[2-[(1-ethyl-1H-pyrazol-4-yl)amino]-5-(trifluoromethyl)pyrimidin-4-yl]amino}bicyclo[2.2.1]hept-5-ene-2-carboxamide]
Ki (Aurora B): < 100 nM
Ki (KDR [1]): < 100 nM
IC50 (KDR [2]): < 100 nM

NC(=O)[C@@H]1[C@H](Nc2nc(Nc3cnn(CC(=O)O)c3)ncc2Cl)[C@H]2C=C[C@@H]1C2 [Example 103, {4-[(4-{[(1R,2R,3S,4S)-3-carbamoylbicyclo[2.2.1]hept-5-ene-2-yl]amino}-5-chloropyrimidin-2-yl)amino]-1H-pyrazol-1-yl}acetic acid]
Ki (Aurora B): < 100 nM
Ki (KDR [1]): < 100 nM
IC50 (KDR [2]): 100 to 1000 nM
